pEC50: −log10 of the molar value. Where two headings read alike, the source gives them in different places. Values belong to the molecule of their own block, whether it stands above or below them.
Biological target: T1, GPR119 (Homo sapiens, UniProt Q8TDV5)
T1 sequence (Q8TDV5 1-335): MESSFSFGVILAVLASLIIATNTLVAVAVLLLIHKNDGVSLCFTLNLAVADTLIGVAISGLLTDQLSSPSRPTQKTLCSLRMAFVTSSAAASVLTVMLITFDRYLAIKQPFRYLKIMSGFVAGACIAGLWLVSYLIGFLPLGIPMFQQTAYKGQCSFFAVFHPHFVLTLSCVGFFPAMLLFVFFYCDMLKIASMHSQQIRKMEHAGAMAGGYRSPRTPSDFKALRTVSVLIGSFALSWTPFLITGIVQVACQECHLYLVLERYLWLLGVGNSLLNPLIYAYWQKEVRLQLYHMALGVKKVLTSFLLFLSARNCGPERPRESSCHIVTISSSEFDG
Experiment: LANCE Ultra cAMP assay: stimulation of GPR119-mediated cAMP production in CHO cells stably expressing human GPR119 receptor
Assay type: cell-based
Conditions: for Emax: CHO
Method: The potency of GPR119 receptor agonists was assessed by measuring the stimulation of GPR119-mediated cAMP production with LANCE Ultra cAMP assay (Perkin Elmer, TRF0264) in CHO cells stably expressing human GPR119 receptor (Chantest, cat. #A633). CHO-GPR119 cells were cultured in DMEM/F12 medium supplemented with 10% FBS and 1% NEAA at 37° C., 5% CO2, aliquoted and frozen in liquid nitrogen.
(§1) For assay, cells were thawed in a water bath at 37° C., washed in Hank's Balanced Salt Solution (HBSS) and resuspended in Stimulation Buffer 1 (SB1) for 30 min: 5 mM HEPES, pH 7.2-7.4, 0.1% BSA in HBSS. […] The ULight-anti-cAMP antibody (Perkin Elmer, TRF0264) was added to the cell suspension making Mix [Cell suspension/4× ULight-anti-cAMP antibodies]. […] The assay plate was centrifuged 200 g, 5 sec.
Serial dilution (100×) of tested compounds were prepared in DMSO in the range of from 30 nM to 1 mM with half-log step in 384-well plates (Greiner, 781280) using Biomek 2000. 10 test concentrations in two repeats were prepared for each CRC. […] The assay plate was incubated 30 minutes at room temperature on a shaker, 250 rpm to allow GPR119 receptor stimulation. The cAMP level was determined according to the standard kit supplier protocol (PerkinElmer, cat. #TRF0264).
(§2) The stock solution of the Eu-cAMP tracer (Perkin Elmer, TRF0264) was diluted 1:100 in cAMP Detection Buffer (Perkin Elmer, TRF0264), making 2× working concentration and added to the assay plate, 10 μL per well. Assay plate was centrifuged 180 g, 1 sec. Then the assay plate was incubated for 60′ at room temperature on shaker, 250 rpm to allow cAMP detection. The TR-FRET signal was measured at Ex-340 nm/Em-615 and Ex-340 nm/Em-665 nm on the reader Tecan M1000. 0% of cAMP stimulation corresponds to the cells with DMSO only, 100% of cAMP stimulation corresponds to the cells with 10 uM Forskolin. The EC50 value defined as the concentration of the drug that gives half-maximal response, were calculated using GraphPad Prizm 5.0 software with forskolin was used as references at each test. Entries 1-17 in Table A-2 show the biological activity of certain representative compounds using the protocol as described above.
as §1, with “cell suspension,” for “cell suspension”
as §2, with “1-14” for “1-17”, “B-2” for “A-2”

[1] = Table B-2 entries 15-39, modified protocol, 500 cells/well
[2] = Table A-2 entries 18-25, modified protocol, 500 cells/well, read-out: % cAMP Max. relative to forscolin
[3] = Table A-2 entries 18-25, modified protocol, 500 cells/well
[4] = Table B-2 entries 15-39, modified protocol, 500 cells/well, read-out: % cAMP Max.
[5] = Table A-2 entries 1-17, protocol as described, 100% = 10 uM Forskolin, read-out: % cAMP Max. relative to forscolin
[6] = Table A-2 entries 1-17, protocol as described (800 000 cells/mL, 5 uL/well), CHO-GPR119 cells
[7] = Table B-2 entries 1-14, protocol as described (800 000 cells/mL, 5 uL/well), CHO-GPR119 cells

- pEC50 [1]: < 5.00
Structure (SMILES): CCc1cnc(N2CC[C@@H](COc3ccc(-c4ccc5c(c4)OCS5)cc3F)C2)nc1 [Example B-69]

- Emax [4]: 78%
- pEC50 [1]: 7.98
Structure (SMILES): CC(C)c1cnc(N2CCC(COc3ccc(-c4ccc5c(c4)OCS5)cc3F)CC2)nc1 [Example B-38, 2-(4-((4-(Benzo[d][1,3]oxathiol-6-yl)-2-fluorophenoxy)methyl)piperidin-1-yl)-5-isopropylpyrimidine]

- Emax [4]: 66%
- pEC50 [1]: 7.36
Structure (SMILES): [O-][S@+]1COc2cc(-c3cnc(OCC4CCN(c5ncc(Cl)cn5)CC4)nc3)ccc21 [Example B-62, (S)-6-(2-((1-(5-Chloropyrimidin-2-yl)piperidin-4-yl)methoxy)pyrimidin-5-yl)-2H-benzo[d][1,3]oxathiole 3-oxide]

- pEC50 [7]: 7.34
Structure (SMILES): CC(C)CC(=O)N1CCC(COc2ccc(-c3ccc4c(c3)OC[S+]4[O-])cc2F)CC1 (centres unmarked) [Example B-23, 1-(4-((2-Fluoro-4-(3-oxido-2H-benzo[d][1,3]oxathiol-6-yl)phenoxy)methyl)-piperidin-1-yl)-3-methylbutane-1-one]

- Emax [4]: 70%
- pEC50 [1]: 7.39
Structure (SMILES): COc1cnc(N2CCC(COc3ccc(-c4ccc5c(c4)OC[S@+]5[O-])cc3F)CC2)nc1 [Example B-51, (R)-6-(3-Fluoro-4-((1-(5-methoxypyrimidin-2-yl)piperidin-4-yl)methoxy)phenyl)-2H-benzo[d][1,3]oxathiole 3-oxide]

- Emax [4]: 72%
- pEC50 [1]: 6.94
Structure (SMILES): CCc1cnc(N2CC[C@@H](COc3ccc(-c4ccc5c(c4)OC[S@+]5[O-])cc3F)C2)nc1 [Example B-78]

- Emax [4]: 74%
- pEC50 [1]: 7.39
Structure (SMILES): CC(C)c1cnc(N2CCC(COc3ccc(-c4ccc5c(c4)OC[S@+]5[O-])cc3F)CC2)nc1 [Example B-53, (R)-6-(3-fluoro-4-((1-(5-isopropylpyrimidin-2-yl)piperidin-4-yl)methoxy)phenyl)-2H-benzo[d][1,3]oxathiole 3-oxide]

- Emax [4]: 68%
- pEC50 [1]: 8.64
Structure (SMILES): CCc1cnc(N2CCC(COc3ccc(-c4ccc5c(c4)OC[S@@+]5[O-])cc3F)CC2)nc1 [Example B-45, (S)-6-(4-((1-(5-Ethylpyrimidin-2-yl)piperidin-4-yl)methoxy)-3-fluorophenyl)-2H-benzo[d][1,3]oxathiole 3-oxide]

- pEC50 [7]: 7.28
Structure (SMILES): [O-][S+]1COc2cc(-c3ccc(OCC4CCN(c5ccc(C(F)(F)F)cn5)CC4)c(F)c3)ccc21 (centres unmarked) [Example B-29, 6-(3-Fluoro-4-((1-(5-(trifluoromethyl)pyridin-2-yl)piperidin-4-yl)methoxy)phenyl)-2H-benzo[d][1,3]oxathiole 3-oxide]

- Emax [4]: 64%
- pEC50 [1]: 5.54
Structure (SMILES): COc1cnc(N2CCC(COc3ccc(-c4ccc5c(c4)OCS5)cc3F)CC2)nc1 [Example B-39, 2-(4-((4-(Benzo[d][1,3]oxathiol-6-yl)-2-fluorophenoxy)methyl)piperidin-1-yl)-5-methoxpyrimidine]

- Emax [4]: 50%
- pEC50 [1]: 5.70
Structure (SMILES): CC(C)CC(=O)N1CCC(COc2ccc(-c3ccc4c(c3)OCS4)cc2F)CC1 [Example B-40, 1-(4-((4-(Benzo[d][1,3]oxathiol-6-yl)-2-fluorophenoxy)methyl)piperidin-1-yl)-3-methylbutan-1-one]

- pEC50 [7]: 8.64
Structure (SMILES): COc1cnc(N2CCC(COc3ccc(-c4ccc5c(c4)OC[S+]5[O-])cc3F)CC2)nc1 (centres unmarked) [Example B-24, 6-(3-Fluoro-4-((1-(5-methoxypyrimidin-2-yl)piperidin-4-yl)methoxy)phenyl)-2H-benzo[d][1,3]oxathiole 3-oxide]

- pEC50 [7]: 8.92
Structure (SMILES): [O-][S@+]1COc2cc(-c3ccc(OCC4CCN(c5ncc(Cl)cn5)CC4)c(F)c3)ccc21 [Example B-32, (S)-6-(4-((1-(5-chloropyrimidin-2-yl)piperidin-4-yl)methoxy)-3-fluorophenyl)-2H-benzo[d][1,3]oxathiole 3-oxide]

- Emax [4]: 81%
- pEC50 [1]: 7.49
Structure (SMILES): CCc1cnc(N2CC[C@@H](COc3ccc(-c4ccc5c(c4)OC[S@@+]5[O-])cc3F)C2)nc1 [Example B-77]

- pEC50 [7]: 6.55
Structure (SMILES): Fc1cc(-c2ccc3c(c2)OCS3)ccc1OCC1CCN(c2ncc(Cl)cn2)CC1 [Example B-12]

The remaining lines, values behind:

Structure (SMILES): O=S1(=O)COc2cc(-c3ccc(OC[C@H]4CCN(c5ncc(Cl)cn5)C4)c(F)c3)ccc21 [Example A-89, (S)-6-(4-((1-(5-Chloropyrimidin-2-yl)pyrrolidin-3-yl)methoxy)-3-fluorophenyl)-2H-benzo[d][1,3]oxathiole 3,3-dioxide]
- Emax [2]: 93%
- pEC50 [3]: 7.34

Structure (SMILES): CC(C)c1noc(N2CCC(COc3ccc(-c4ccc5c(c4)OCS5(=O)=O)cc3F)CC2)n1 [Example A-59, 6-(3-Fluoro-4-((1-(3-isopropyl-1,2,4-oxadiazol-5-yl)piperidin-4-yl)methoxy)phenyl)-2H-benzo[d][1,3]oxathiole 3,3-dioxide]
- Emax [5]: 77%
- pEC50 [6]: 8.27

Structure (SMILES): CCc1cnc(N2CCC(COc3cnc(-c4ccc5c(c4)OCS5(=O)=O)nc3)CC2)nc1 [Example A-76, 6-(5-((1-(5-Ethylpyrimidin-2-yl)piperidin-4-yl)methoxy)pyrimidin-2-yl)-2H-benzo[d][1,3]oxathiole 3,3-dioxide]
- Emax [2]: 87%
- pEC50 [3]: 8.09

Structure (SMILES): CC(C)(C)C(=O)N1CCC(COc2ccc(-c3ccc4c(c3)OCS4(=O)=O)cc2F)CC1 [A-15]
- Emax [5]: 80%
- pEC50 [6]: 7.21

Structure (SMILES): NC(=O)N1CCC(COc2ccc(-c3ccc4c(c3)OCS4(=O)=O)cc2F)CC1 [A-20]
- Emax [5]: 70%
- pEC50 [6]: ≤ 5.00

Structure (SMILES): CC(C)[C@H](N)C(=O)N1CCC(COc2ccc(-c3ccc4c(c3)OCS4(=O)=O)cc2F)CC1 [A-19]
- Emax [5]: 65%
- pEC50 [6]: 5.39

Structure (SMILES): CC(C)C(=O)N1CCC(COc2ccc(-c3ccc4c(c3)OCS4(=O)=O)cc2F)CC1 [A-21]
- Emax [5]: 77%
- pEC50 [6]: 7.43

Structure (SMILES): COc1cnc(N2CCC(COc3ccc(-c4ccc5c(c4)OCS5(=O)=O)cc3F)CC2)nc1 [Example A-67, 6-(3-Fluoro-4-(1-(5-methoxypyrimidin-2-yl)piperidin-4-yl)methoxy)phenyl-2H-benzo[d][1,3]oxathiole 3,3-dioxide]
- Emax [2]: 72%
- pEC50 [3]: 7.67

Structure (SMILES): NCC(=O)N1CCC(COc2ccc(-c3ccc4c(c3)OCS4(=O)=O)cc2F)CC1 [A-17]
- Emax [5]: 67%
- pEC50 [6]: ≤ 5.00

Structure (SMILES): O=S1(=O)COc2cc(-c3cnc(OCC4CCN(c5ncc(Cl)cn5)CC4)nc3)ccc21 [A-29, 6-(2-((1-(5-Chloropyrimidin-2-yl)piperidin-4-yl)methoxy)pyrimidin-5-yl)-2H-benzo[d][1,3]oxathiole 3,3-dioxide]
- Emax [5]: 80%
- pEC50 [6]: 7.48
